Measurements reported in patent publication US6323195A, “Galanthamine derivatives as acetylcholinesterase inhibitors” (priority 1993, dated 2001).
Where a name gives a salt, the structure may show the parent alone.

Tests used:
[1] = biological target: acetylcholinesterase (Homo sapiens, UniProt P22303); assay: Acetylcholinesterase Inhibition Assay (photometric method of Ellman et al.); type: biochemical
[2] = test system: mice; type: in vivo; conditions: SDDA Dose 0.003 mg/kg, s.c., retest after 24 hours
Procedure: This utility can also be ascertained by determining the ability of these compounds to restore cholinergically deficient memory in the Dark Avoidance Assay. In this assay mice are tested for their ability to remember an unpleasant stimulus for a period of 24 hours. A mouse is placed in a chamber that contains a dark compartment; a strong incandescent light drives it to the dark compartment, where an electric shock is administered through metal plates on the floor. The animal is removed from the testing apparatus and tested again, 24 hours later, for the ability to remember the electric shock.
If scopolamine, an anticholinergic that is known to cause memory impairment, is administered before an animal's initial exposure to the test chamber, the animal re-enters the dark compartment shortly after being placed in the test chamber 24 hours later. This effect of scopolamine is blocked by an active test compounds, resulting in a greater interval before reentry into the dark compartment.
The test results are expressed as the percent of a group of animals in which the effect of scopolamine is blocked, as manifested by an increased interval between being placed in the test chamber and reentering the dark compartment. Results of Dark Avoidance Assay for some of the compounds of this invention are presented in Table II along with a result for a reference compounds.

Chain of acetylcholinesterase (P22303 32-614): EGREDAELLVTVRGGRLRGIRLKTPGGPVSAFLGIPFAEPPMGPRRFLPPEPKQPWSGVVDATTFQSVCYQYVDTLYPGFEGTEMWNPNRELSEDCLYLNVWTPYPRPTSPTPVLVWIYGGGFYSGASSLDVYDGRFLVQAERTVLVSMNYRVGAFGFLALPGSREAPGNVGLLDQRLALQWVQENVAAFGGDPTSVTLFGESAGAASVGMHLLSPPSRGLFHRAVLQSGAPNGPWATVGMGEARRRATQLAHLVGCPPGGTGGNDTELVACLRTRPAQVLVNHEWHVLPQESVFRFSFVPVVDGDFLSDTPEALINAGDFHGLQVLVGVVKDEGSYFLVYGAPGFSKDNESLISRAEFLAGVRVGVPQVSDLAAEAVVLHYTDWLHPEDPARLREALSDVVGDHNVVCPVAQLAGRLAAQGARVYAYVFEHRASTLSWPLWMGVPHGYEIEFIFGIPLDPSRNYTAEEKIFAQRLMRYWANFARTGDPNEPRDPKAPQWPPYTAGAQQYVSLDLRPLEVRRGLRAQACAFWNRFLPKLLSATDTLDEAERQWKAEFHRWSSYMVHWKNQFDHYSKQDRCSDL

In the case of `CN1CC[C@@]23C=C[C@H](O)C[C@@H]2Oc2c(OC(=O)N4CCc5ccccc5C4)ccc(c23)C1` [Example 2, (6-O-Demethyl)-6-O-(1,2,3,4-tetrahydroisoquinolin-2-yl)carbonyl]-galanthamine hydrochloride], the IC50 [1] is reported as 0.9 nM and the “Percent of Animals with Scopolamine Induced Memory Deficit Reversal” value [2] is reported as 27% of Animals.
